In patent US20060148055A1, “Oxidised fragments of apolioprotein B and their uses” (priority 1997, published 2006):
No end group written: not given here. MDA = malondialdehyde

Tested on: U937 monocytes
Assay: Inhibition of oxidised LDL uptake by peptides in monocytes in cell culture (DiI-labelled LDL fluorescence)
Assay type: cell-based
Settings: versus oxidised LDL alone, ANOVA followed by Tukey post test
Method: An experiment was performed to determine in cell culture if uptake of oxidised LDL by U937 monocytes could be inhibited by the peptides according to SEQ ID NOs:1-3, both in their native state and conjugated to MDA.
LDL (1 mg/ml) was labelled with 1,1′-dioctadecyl-3,3,3′,3′,-tetramethylindocarbocyanine perchlorate (DiI) (300 μg/mg LDL) by incubation overnight at 37° C. in the dark under nitrogen. Excess DiI was removed by desalting into PBS (0.01 M phosphate buffer, 0.137 M sodium chloride, pH 7.4) through a PD-10 column.
U937 monocytes were maintained in RPMI media supplemented with heat inactivated fetal calf serum (10%) (FCS) and penicillin/streptomycin (1%). Cells were ‘starved’ of lipids by culturing in RMPI supplemented with penicillin/streptomycin (1%) in the absence of serum, and plated at 1 million cells per well in 6 well plates, 4 hours before treatment with DiI labelled LDL. […] Non-starved cells were also plated at 1 million cells per well in 6 well plates, 4 hours before treatment with DiI labelled LDL. Starved and non-starved cells were treated with DiI labelled LDL (oxidized) (50 μg) in the presence or absence of excess unlabelled peptide (native or MDA-conjugated) (500 μg) as competitor. […] Fluorescence was read at Ex 520 nm, Em 590 nm using a Molecular Devices Gemini XS microplate fluorimeter. […]

Question: What does the source list for “RB1: peptide SEQ ID NO: 1 (ALQYKLEGTTR) MDA-conjugated (ALQYK(MDA)LEGTTR)”?
Answer: inhibition of uptake of oxidised LDL by monocytes (in words): inhibition is statistically significant; inhibition of uptake of oxidised LDL by monocytes (in words) (listed as peptide corresponding to SEQ ID NO:1 conjugated to MDA): inhibits uptake
